Numbers after ± are expanded uncertainties.
Test: cn = amount concentration of the nth substance listed, in mol/dm3
Details: 303 K, 101 kPa, Liquid; for viscosity: Capillary tube (Ostwald / Ubbelohde) method; for speed of sound: Linear variable-path acoustic interferometer; for mass density: Pycnometric method

O=C1C(Cl)=C(Cl)C(=O)C(Cl)=C1Cl [2,3,5,6-tetrachloro-p-benzoquinone] + C[S+](C)[O-]
Details | mass density [kg/m3] | speed of sound [m/s] | viscosity [mPa·s]
c1 = 0.002 | 1091.4 ± 0.8 | 1472.4 ± 3.2 | 1.756 ± 0.017
c1 = 0.004 | 1091.6 ± 0.8 | 1472.6 ± 3.2 | 1.757 ± 0.017
c1 = 0.006 | 1091.9 ± 0.8 | 1471.9 ± 3.2 | 1.758 ± 0.017
c1 = 0.008 | 1091.9 ± 0.8 | 1471.3 ± 3.2 | 1.773 ± 0.017
c1 = 0.01 | 1092.1 ± 0.8 | 1471.6 ± 3.2 | 1.769 ± 0.017
c1 = 0.012 | 1091.6 ± 0.8 | 1470.3 ± 3.2 | 1.767 ± 0.017
c1 = 0.014 | 1091.4 ± 0.8 | 1467.1 ± 3.2 | 1.76 ± 0.017
c1 = 0.016 | 1091.2 ± 0.8 | 1468.3 ± 3.2 | 1.756 ± 0.017
c1 = 0.018 | 1091.7 ± 0.8 | 1468.5 ± 3.2 | 1.767 ± 0.017
c1 = 0.02 | 1091.7 ± 0.8 | 1468.7 ± 3.2 | 1.769 ± 0.017

Cc1ccccc1N [2-methylaniline] + C[S+](C)[O-]
Details | mass density [kg/m3] | speed of sound [m/s] | viscosity [mPa·s]
c1 = 0.002 | 1090.8 ± 0.8 | 1471.4 ± 3.2 | 1.713 ± 0.016
c1 = 0.004 | 1090.4 ± 0.8 | 1471.8 ± 3.2 | 1.713 ± 0.016
c1 = 0.006 | 1090.5 ± 0.8 | 1472 ± 3.2 | 1.723 ± 0.016
c1 = 0.008 | 1089.6 ± 0.9 | 1471.2 ± 3.2 | 1.718 ± 0.016
c1 = 0.01 | 1089.5 ± 0.8 | 1472.6 ± 3.2 | 1.72 ± 0.016
c1 = 0.012 | 1090 ± 0.8 | 1473.5 ± 3.2 | 1.723 ± 0.016
c1 = 0.014 | 1089.7 ± 0.8 | 1472.5 ± 3.2 | 1.718 ± 0.016
c1 = 0.016 | 1089.8 ± 0.8 | 1471.9 ± 3.2 | 1.724 ± 0.016
c1 = 0.018 | 1089.4 ± 0.8 | 1473 ± 3.2 | 1.733 ± 0.016
c1 = 0.02 | 1090.3 ± 0.9 | 1473.9 ± 3.2 | 1.723 ± 0.016

CN(C)c1ccccc1 [N,N-dimethylaniline] + C[S+](C)[O-]
Details | mass density [kg/m3] | speed of sound [m/s] | viscosity [mPa·s]
c1 = 0.002 | 1090.7 ± 0.8 | 1471.9 ± 3.2 | 1.734 ± 0.016
c1 = 0.004 | 1090.4 ± 0.8 | 1472.5 ± 3.2 | 1.725 ± 0.016
c1 = 0.006 | 1090.7 ± 0.8 | 1471.9 ± 3.2 | 1.721 ± 0.016
c1 = 0.008 | 1090.6 ± 0.8 | 1472.6 ± 3.2 | 1.731 ± 0.016
c1 = 0.01 | 1089.9 ± 0.8 | 1471.8 ± 3.2 | 1.747 ± 0.017
c1 = 0.012 | 1089.6 ± 0.8 | 1472.1 ± 3.2 | 1.724 ± 0.016
c1 = 0.014 | 1090.1 ± 0.8 | 1472.3 ± 3.2 | 1.73 ± 0.016
c1 = 0.016 | 1089.8 ± 0.8 | 1471.6 ± 3.2 | 1.731 ± 0.016
c1 = 0.018 | 1090.3 ± 0.8 | 1472.2 ± 3.2 | 1.733 ± 0.016
c1 = 0.02 | 1090.2 ± 0.8 | 1472 ± 3.2 | 1.732 ± 0.016

CNc1ccccc1 [N-methylaniline] + C[S+](C)[O-]
Details | mass density [kg/m3] | speed of sound [m/s] | viscosity [mPa·s]
c1 = 0.002 | 1090.8 ± 0.8 | 1471.6 ± 3.2 | 1.713 ± 0.016
c1 = 0.004 | 1090.4 ± 0.8 | 1471.8 ± 3.2 | 1.713 ± 0.016
c1 = 0.006 | 1090 ± 0.8 | 1472 ± 3.2 | 1.723 ± 0.016
c1 = 0.008 | 1089.6 ± 0.8 | 1471.2 ± 3.2 | 1.718 ± 0.016
c1 = 0.01 | 1089.8 ± 0.8 | 1471.7 ± 3.2 | 1.724 ± 0.016
c1 = 0.012 | 1090 ± 0.8 | 1473.5 ± 3.2 | 1.733 ± 0.016
c1 = 0.014 | 1089.7 ± 0.8 | 1472.5 ± 3.2 | 1.723 ± 0.016
c1 = 0.016 | 1089.8 ± 0.8 | 1471.9 ± 3.2 | 1.718 ± 0.016
c1 = 0.018 | 1089.8 ± 0.8 | 1473 ± 3.2 | 1.718 ± 0.016
c1 = 0.02 | 1090.1 ± 0.8 | 1473.9 ± 3.2 | 1.72 ± 0.016

Nc1ccccc1 [aniline] + C[S+](C)[O-]
Details | mass density [kg/m3] | speed of sound [m/s] | viscosity [mPa·s]
c1 = 0.002 | 1090.4 ± 0.8 | 1471.6 ± 3.2 | 1.789 ± 0.017
c1 = 0.004 | 1090.6 ± 0.8 | 1473.9 ± 3.2 | 1.798 ± 0.017
c1 = 0.006 | 1090.7 ± 0.8 | 1473.4 ± 3.2 | 1.79 ± 0.017
c1 = 0.008 | 1090.2 ± 0.8 | 1472.7 ± 3.2 | 1.79 ± 0.017
c1 = 0.01 | 1090.6 ± 0.8 | 1474.1 ± 3.2 | 1.806 ± 0.017
c1 = 0.012 | 1090.4 ± 0.8 | 1473.7 ± 3.2 | 1.777 ± 0.017
c1 = 0.014 | 1090.5 ± 0.8 | 1472.7 ± 3.2 | 1.802 ± 0.017
c1 = 0.016 | 1090.3 ± 0.8 | 1472.8 ± 3.2 | 1.819 ± 0.018
c1 = 0.018 | 1090.4 ± 0.8 | 1473 ± 3.2 | 1.79 ± 0.017
c1 = 0.02 | 1090.6 ± 0.8 | 1474 ± 3.2 | 1.792 ± 0.017

— the NIST ThermoML archive (doi:10.1016/j.fluid.2013.09.026)
